In brackets after ≈: the same amount, converted by molar mass.
Columns and labels:
[1] = system: vancomycin-susceptible enterococci; assay: broth micro-dilution, mean geometric MIC; format: cell-based, Enterococcus faecium and Enterococcus faecalis; details: enterococci, 24-hour incubation
[2] = system: Staphylococcus aureus SA1199; assay: broth micro-dilution MIC; format: cell-based
Description: (§1) The MIC's were determined using a standard broth micro-dilution assay.

[3] = system: Staphylococcus aureus 447; assay: broth micro-dilution MIC; format: cell-based
Description: as §1

[4] = system: Staphylococcus aureus X778; assay: broth micro-dilution MIC; format: cell-based
Description: as §1

[5] = system: Staphylococcus aureus X400; assay: broth micro-dilution MIC; format: cell-based
Description: as §1

[6] = system: Entercoccus faecium 180-1; assay: broth micro-dilution MIC; format: cell-based
Description: as §1

[7] = system: Staphylococcus aureus 446; assay: broth micro-dilution MIC; format: cell-based
Description: as §1

[8] = system: Staphylococcus aureus 489; assay: broth micro-dilution MIC; format: cell-based
Description: as §1

[9] = system: Entercoccus faecium 276; assay: broth micro-dilution MIC; format: cell-based
Description: as §1

[10] = system: Staphylococcus aureus 491; assay: broth micro-dilution MIC; format: cell-based
Description: as §1

[11] = system: vancomycin-resistant enterococci; assay: broth micro-dilution, mean geometric MIC; format: cell-based, Enterococcus faecium and Enterococcus faecalis; details: enterococci, 24-hour incubation
[12] = system: Entercoccus faecium 2041; assay: broth micro-dilution MIC; format: cell-based; details: Entercoccus faecium 2041
Description: (§2) The formula I compounds have in vitro and in vivo activity against Gram-positive pathogenic bacteria. The MIC's were determined using a standard broth micro-dilution assay.

[13] = system: Staphylococcus haemolyticus 415; assay: broth micro-dilution MIC; format: cell-based
Description: as §2

[14] = system: Staphylococcus haemolyticus 105; assay: broth micro-dilution MIC; format: cell-based
Description: as §2

[15] = system: Staphylococcus epidermidis 270; assay: broth micro-dilution MIC; format: cell-based
Description: as §2

[16] = system: Entercoccus faecium 180; assay: broth micro-dilution MIC; format: cell-based; details: Entercoccus faecium 180
Description: as §2

[17] = system: Enterococcus gallinarum 245; assay: broth micro-dilution MIC; format: cell-based; details: Enterococcus gallinarum 245
Description: as §2

[18] = system: Haemophilus influenzae RD; assay: broth micro-dilution MIC; format: cell-based; details: Haemophilus influenzae RD
Description: as §2

[19] = system: Staphylococcus aureus S13E; format: cell-based
Description: as §1

[20] = system: Staphylococcus aureus SA1199B; format: cell-based
Description: as §1

[21] = system: Streptococcus pyogenes C203; assay: broth micro-dilution MIC; format: cell-based
Description: as §1

[22] = system: Streptococcus pneumoniae P1; assay: broth micro-dilution MIC; format: cell-based
Description: as §2

[23] = system: Staphylococcus aureus SA1199A; assay: broth micro-dilution MIC; format: cell-based
Description: as §1

| Structure (SMILES) | mean geometric MIC, Vancomycin Sensitive Strains [1] [µg/mL] | MIC [2] [µg/mL] | MIC [4] [µg/mL] | MIC [5] [µg/mL] | MIC [6] [µg/mL] | MIC [7] [µg/mL] | MIC [8] [µg/mL] | MIC [9] [µg/mL] | MIC [10] [µg/mL] | mean geometric MIC, Vancomycin Resistant Strains [11] [µg/mL] | MIC [12] [µg/mL] | MIC [13] [µg/mL] | MIC [14] [µg/mL] | MIC [15] [µg/mL] | MIC [16] [µg/mL] | MIC [17] [µg/mL] | MIC [18] [µg/mL] | MIC [19] [µg/mL] | MIC [20] [µg/mL] | MIC [22] [µg/mL] | also measured |
| --- | --- | --- | --- | --- | --- | --- | --- | --- | --- | --- | --- | --- | --- | --- | --- | --- | --- | --- | --- | --- | --- |
| CNC(CC(C)C)C(=O)NC1C(=O)NC(CC(N)=O)C(=O)NC2C(=O)NC3C(=O)NC(C(=O)NC(C(=O)O)c4cc(O)cc(O)c4-c4cc3ccc4O)C(OC3CC(C)(N)C(O)C(C)O3)c3ccc(c(Cl)c3)Oc3cc2cc(c3OC2OC(CO)C(O)C(O)C2OC2CC(C)(NCCCCCCCCc3ccccc3)C(O)C(C)O2)Oc2ccc(cc2Cl)C1O (stereo not shown) [Compound 176] | 0.13 | 2 (≈ 1.12 µM) | 1 (≈ 0.562 µM) | 1 (≈ 0.562 µM) | ≤ 0.06 | 2 (≈ 1.12 µM) | 0.5 (≈ 0.281 µM) | 2 (≈ 1.12 µM) | 2 (≈ 1.12 µM) | 1.2 | 0.125 (≈ 0.0702 µM) | 2 (≈ 1.12 µM) | 4 (≈ 2.25 µM) | 0.5 (≈ 0.281 µM) | 2 (≈ 1.12 µM) | 2 (≈ 1.12 µM) | 8 (≈ 4.49 µM) | 2 (≈ 1.12 µM) | 1 (≈ 0.562 µM) | – | MIC [3]: 1 µg/mL (≈ 0.562 µM) |
| CC#CCCCCCCCCCCNC1(C)CC(OC2C(Oc3c4cc5cc3Oc3ccc(cc3Cl)C(OC3CC(C)(N)C(O)C(C)O3)C3NC(=O)C(NC(=O)C5NC(=O)C(CC(N)=O)NC(=O)C(NC(=O)C(CC(C)C)NC)C(O)c5ccc(c(Cl)c5)O4)c4ccc(O)c(c4)-c4c(O)cc(O)cc4C(C(=O)O)NC3=O)OC(CO)C(O)C2O)OC(C)C1O (stereo not shown) [Compound 199] | 0.036 | 1 (≈ 0.565 µM) | 1 (≈ 0.565 µM) | 2 (≈ 1.13 µM) | ≤ 0.06 | 0.5 (≈ 0.282 µM) | 2 (≈ 1.13 µM) | 1 (≈ 0.565 µM) | 0.5 (≈ 0.282 µM) | 1.4 | ≤ 0.06 | 4 (≈ 2.26 µM) | 2 (≈ 1.13 µM) | 0.5 (≈ 0.282 µM) | 0.5 (≈ 0.282 µM) | 4 (≈ 2.26 µM) | 32 (≈ 18.1 µM) | 0.5 (≈ 0.282 µM) | 1 (≈ 0.565 µM) | ≤ 0.06 | MIC [3]: 1 µg/mL (≈ 0.565 µM); MIC [21]: ≤ 0.06 µg/mL |
| CNC(CC(C)C)C(=O)NC1C(=O)NC(CC(N)=O)C(=O)NC2C(=O)NC3C(=O)NC(C(=O)NC(C(=O)O)c4cc(O)cc(O)c4-c4cc3ccc4O)C(OC3CC(C)(N)C(O)C(C)O3)c3ccc(c(Cl)c3)Oc3cc2cc(c3OC2OC(CO)C(O)C(O)C2OC2CC(C)(NCCCCCCCCOc3ccc(-c4ccccc4)cc3)C(O)C(C)O2)Oc2ccc(cc2Cl)C1O (stereo not shown) [Compound 201] | 0.44 | 8 (≈ 4.27 µM) | 4 (≈ 2.14 µM) | 4 (≈ 2.14 µM) | 0.5 (≈ 0.267 µM) | 4 (≈ 2.14 µM) | 8 (≈ 4.27 µM) | 4 (≈ 2.14 µM) | 4 (≈ 2.14 µM) | 1.2 | 1 (≈ 0.534 µM) | 8 (≈ 4.27 µM) | 8 (≈ 4.27 µM) | 4 (≈ 2.14 µM) | 0.5 (≈ 0.267 µM) | 8 (≈ 4.27 µM) | 32 (≈ 17.1 µM) | 8 (≈ 4.27 µM) | – | ≤ 0.06 | MIC [23]: 2 µg/mL (≈ 1.07 µM); MIC [21]: ≤ 0.06 µg/mL |
| CNC(CC(C)C)C(=O)NC1C(=O)NC(CC(N)=O)C(=O)NC2C(=O)NC3C(=O)NC(C(=O)NC(C(=O)O)c4cc(O)cc(O)c4-c4cc3ccc4O)C(OC3CC(C)(N)C(O)C(C)O3)c3ccc(c(Cl)c3)Oc3cc2cc(c3OC2OC(CO)C(O)C(O)C2OC2CC(C)(NCCCCC3CCCCC3)C(O)C(C)O2)Oc2ccc(cc2Cl)C1O (stereo not shown) [Compound 205] | 0.036 | 1 (≈ 0.578 µM) | 0.5 (≈ 0.289 µM) | 0.5 (≈ 0.289 µM) | ≤ 0.06 | 2 (≈ 1.16 µM) | 0.5 (≈ 0.289 µM) | 0.5 (≈ 0.289 µM) | 0.5 (≈ 0.289 µM) | 1 | 0.25 (≈ 0.144 µM) | 1 (≈ 0.578 µM) | 1 (≈ 0.578 µM) | – | 0.5 (≈ 0.289 µM) | 1 (≈ 0.578 µM) | 16 (≈ 9.24 µM) | 0.5 (≈ 0.289 µM) | 0.5 (≈ 0.289 µM) | ≤ 0.06 | MIC [3]: 0.5 µg/mL (≈ 0.289 µM); MIC [23]: ≤ 0.06 µg/mL; MIC [21]: ≤ 0.06 µg/mL |
| CNC(CC(C)C)C(=O)NC1C(=O)NC(CC(N)=O)C(=O)NC2C(=O)NC3C(=O)NC(C(=O)NC(C(=O)O)c4cc(O)cc(O)c4-c4cc3ccc4O)C(OC3CC(C)(N)C(O)C(C)O3)c3ccc(c(Cl)c3)Oc3cc2cc(c3OC2OC(CO)C(O)C(O)C2OC2CC(C)(NCc3ccc(-c4ccccc4[N+](=O)[O-])c([N+](=O)[O-])c3)C(O)C(C)O2)Oc2ccc(cc2Cl)C1O (stereo not shown) [Compound 213] | 0.55 | ≤ 0.06 | ≤ 0.06 | ≤ 0.06 | ≤ 0.06 | ≤ 0.06 | ≤ 0.06 | ≤ 0.06 | ≤ 0.06 | 1.0 | ≤ 0.06 | 2 (≈ 1.08 µM) | 0.5 (≈ 0.27 µM) | 0.5 (≈ 0.27 µM) | 0.125 (≈ 0.0676 µM) | 2 (≈ 1.08 µM) | 32 (≈ 17.3 µM) | ≤ 0.06 | ≤ 0.06 | ≤ 0.06 | MIC [23]: ≤ 0.06 µg/mL |
| C=CCCCCCCCCNC1(C)CC(OC2C(Oc3c4cc5cc3Oc3ccc(cc3Cl)C(OC3CC(C)(N)C(O)C(C)O3)C3NC(=O)C(NC(=O)C5NC(=O)C(CC(N)=O)NC(=O)C(NC(=O)C(CC(C)C)NC)C(O)c5ccc(c(Cl)c5)O4)c4ccc(O)c(c4)-c4c(O)cc(O)cc4C(C(=O)O)NC3=O)OC(CO)C(O)C2O)OC(C)C1O (stereo not shown) [Compound 214] | 0.024 | 0.5 (≈ 0.289 µM) | 1 (≈ 0.578 µM) | 0.5 (≈ 0.289 µM) | ≤ 0.06 | 1 (≈ 0.578 µM) | 1 (≈ 0.578 µM) | 0.25 (≈ 0.144 µM) | 1 (≈ 0.578 µM) | 0.71 | 0.125 (≈ 0.0722 µM) | 2 (≈ 1.16 µM) | 1 (≈ 0.578 µM) | ≤ 0.06 | 0.25 (≈ 0.144 µM) | 2 (≈ 1.16 µM) | 32 (≈ 18.5 µM) | 1 (≈ 0.578 µM) | 1 (≈ 0.578 µM) | ≤ 0.06 | MIC [3]: 2 µg/mL (≈ 1.16 µM); MIC [23]: 0.5 µg/mL (≈ 0.289 µM) |
| CNC(CC(C)C)C(=O)NC1C(=O)NC(CC(N)=O)C(=O)NC2C(=O)NC3C(=O)NC(C(=O)NC(C(=O)O)c4cc(O)cc(O)c4-c4cc3ccc4O)C(OC3CC(C)(N)C(O)C(C)O3)c3ccc(c(Cl)c3)Oc3cc2cc(c3OC2OC(CO)C(O)C(O)C2OC2CC(C)(NCc3ccc(-c4ccc(C#N)cc4)cc3)C(O)C(C)O2)Oc2ccc(cc2Cl)C1O (stereo not shown) [Compound 231] | 0.11 | ≤ 0.06 | ≤ 0.06 | ≤ 0.06 | ≤ 0.06 | – | ≤ 0.06 | ≤ 0.06 | ≤ 0.06 | 1.7 | ≤ 0.06 | 0.5 (≈ 0.28 µM) | ≤ 0.06 | – | ≤ 0.06 | 0.5 (≈ 0.28 µM) | 32 (≈ 17.9 µM) | ≤ 0.06 | ≤ 0.06 | ≤ 0.06 | MIC [23]: ≤ 0.06 µg/mL; MIC [21]: ≤ 0.06 µg/mL |

Source: patent US5840684A, “Glycopeptide antibiotic derivatives” (Eli Lilly and Company, priority 1995, dated 1998)
